Measured values from US20030124554A1, “Screening method for compounds capable of modularing egr-1-regulated expression” (priority 2002, published 2003).

Test system: human cell co-culture system
Test: In vitro angiogenesis co-culture system (angiogenesis kit, TCS Biologicals), tubule formation
Format: cell-based
Conditions: 11 days co-culture; PECAM-1 staining; Egr-1 DNA 0.5-2.5 μg per well, VEGF protein 2 ng/ml, suramin 20 μM
Description: Egr-1 under the control of the hCMV promoter (Houston et al, Arterioscler. Thromb. Vasc. Biol., 19; 281-289, 1999) was transfected into a human cell co-culture system designed to measure angiogenesis in vitro. The angiogenesis kit (TCS Biologicals) was used as described according to the manufacturer's instructions using VEGF protein (2 ng/ml) and suramin (20 μM) as positive and negative controls respectively for angiogenesis.
Optimisation of transfection in the co-culture system was performed using pGL3 control luciferase (Promega) with 1.0 μg and 0.5 μg CMV-β gal as a normalising plasmid for transfection control. Two ratios of lipid: DNA (v/w) were used; 2:1 and 4:1 (FIG. 3a.). CMV Egr-1 DNA was transfected at 0.5, 1.0, 1.5 and 2.5 μg per well in triplicate in a 24 well microtitre plate using Mirus Transit reagent (Cambridge Biosciences) at a ratio of 2:1 v/w DNA. VEGF protein positive control and suramin negative control was added to triplicate wells. After 11 days co-culture angiogenesis was determined by staining of cells for the endothelial cell marker PECAM-1 and visualisation using BCIP/NBT substrate.
Representative images of tubule formation using all four doses of Egr-1 expression plasmid together with VEGF (positive control) and suramin (negative control) were captured and processed by image analysis using Quantimet 600 image analyser and associated software. […]

For `Cc1ccc(C(=O)Nc2ccc(S(=O)(=O)O)c3cc(S(=O)(=O)O)cc(S(=O)(=O)O)c23)cc1NC(=O)c1cccc(NC(=O)Nc2cccc(C(=O)Nc3cc(C(=O)Nc4ccc(S(=O)(=O)O)c5cc(S(=O)(=O)O)cc(S(=O)(=O)O)c45)ccc3C)c2)c1` [suramin], the tubule formation was “Decreased tubule formation”.
